Earlier results as cited in patent publication US8911777B2, “Pharmaceutical composition of tacrolimus” (Sigmoid Pharma Limited, priority 2007, dated 2014).

Columns and labels:
[1] = whole blood; Masuda et al. 2006
[2] = after oral administration of conventional IR tablets

## C=CC[C@@H]1/C=C(\C)C[C@H](C)C[C@H](OC)[C@H]2O[C@@](O)(C(=O)C(=O)N3CCCC[C@H]3C(=O)O[C@H](/C(C)=C/[C@@H]3CC[C@@H](O)[C@H](OC)C3)[C@H](C)[C@@H](O)CC1=O)[C@H](C)C[C@@H]2OC [Tacrolimus]
[1]
  blood concentration at which adverse effects occurred: higher than 15 ng/ml
[2]
  persistence of drug effects: 8 to 12 h
